The values below are quoted from earlier work in patent US10526334B2, “Methods for preparing bis-tetrahydroisoquinoline-containing compounds” (California Institute of Technology, priority 2017, dated 2020).

pIC50: −log10 of the molar value. Where two headings read alike, the source gives them in different places.

Test in data set [1]: not given
The source holds these as a separate data set.

The mark [2] stands for this setting: read-out: IC50 (A549 lung cancer).

Take `COc1cc2c(cc1O)CCN[C@]21CS[C@@H]2c3c(OC(C)=O)c(C)c4c(c3[C@H](COC1=O)N1[C@@H]2[C@H]2c3c(cc(C)c(OC)c3O)C[C@@H]([C@@H]1O)N2C)OCO4` [Et 743, ecteinascidin 743]: the pIC50 in the data set with A549 lung cancer (setting [2]) was 9.00; with A375 melanoma, 9.82. Moreover, where the note is “human”, the “t1/2 (human)” value is 96 to 180 h. In addition, the “in vivo half-life (t1/2)” value (in humans) is 96 to 180 h and the “in vivo half-life (t1/2)” value in data set [1] (in rodents) was 20 h. The “t1/2 (rodent)” value in data set [1] (rodent) is 20 h.

`COC1=C(C)C(=O)C2=C(C1=O)[C@@H]1[C@@H]3CC4=C(C(=O)C(OC)=C(C)C4=O)[C@H](COC(C)=O)N3[C@@H](O)[C@H](C2)N1C` [Jorumycin, jorumycin]: the pIC50 in the data set with HCT116 colon cancer is 9.24; with A549 lung cancer (read-out: IC50 vs. A549 lung cancer) it was 9.62; in the data set on DU145 prostate cancer, 9.31.

`COc1c(C)c(OC)c2c(c1O)[C@@H]1[C@@H]3Cc4c(OC)c(C)c(OC)c(O)c4[C@H](CNC(=O)c4ccc5ccccc5n4)N3[C@@H](C#N)[C@H](C2)N1C` [QAD]: the pIC50 in the data set with A549 lung cancer (setting [2]) was 8.36; in the data set on A375 melanoma, 8.89. For the same molecule, the “rodent in vivo half-life” value in data set [1] (rodent) is 17 min.
